Assay: molar heat capacity at constant pressure
Settings: 101.33 kPa, Crystal, relaxation calorimetry

[Al+3].[Al+3].[O-2].[O-2].[O-2] [aluminum oxide (Al2O3)]
Settings	molar heat capacity at constant pressure [J/K/mol]
1.93 K	7.666e-05
2.15 K	9.655e-05
2.39 K	0.0001341
2.65 K	0.0001785
2.95 K	0.0002464
3.28 K	0.0003342
3.64 K	0.0004613
4.04 K	0.0006149
4.49 K	0.0008379
4.98 K	0.001136
5.523 K	0.001541
6.13 K	0.00216
6.8 K	0.002926
7.54 K	0.004006
8.36 K	0.005388
9.27 K	0.007325
10.28 K	0.009979
11.37 K	0.0134
12.61 K	0.01843
13.99 K	0.02532
15.52 K	0.03431
17.22 K	0.04685
19.12 K	0.06451
21.23 K	0.08864
23.58 K	0.1229
26.17 K	0.1719
29.08 K	0.2396
32.22 K	0.3344
35.73 K	0.4743
39.62 K	0.6761
43.94 K	0.9644
48.73 K	1.379
54.06 K	1.968
59.98 K	2.789
66.54 K	3.91
73.85 K	5.425
81.95 K	7.444
90.93 K	9.991
100.91 K	13.15
111.18 K	16.79
121.13 K	20.54
131.17 K	24.48
141.28 K	28.54
151.4 K	32.54
161.47 K	36.62
171.56 K	40.51
181.6 K	44.37
191.67 K	48.13
201.78 K	51.63
211.87 K	55.13
221.94 K	58.53
232 K	61.73
241.98 K	64.63
252.05 K	67.6
262.17 K	70.28
272.22 K	72.77
282.18 K	75.28
292.31 K	77.45
297.27 K	78.3
302.27 K	79.34
302.29 K	79.63
307.31 K	80.41
312.34 K	81.4
317.3 K	82.41
322.32 K	83.31
327.42 K	84.26
332.46 K	85.09
337.41 K	85.84
342.44 K	86.73
347.58 K	87.72
352.67 K	88.65
357.7 K	89.47
362.73 K	90.24
367.75 K	90.97
372.77 K	91.84
377.77 K	92.8
382.79 K	93.27
387.76 K	94.14
392.76 K	95.04
397.77 K	95.81

O=C(O)c1ccccc1 [benzoic acid]
Settings	molar heat capacity at constant pressure [J/K/mol]
1.93 K	0.01333
2.15 K	0.01845
2.39 K	0.0255
2.66 K	0.03397
2.96 K	0.04707
3.29 K	0.06572
3.65 K	0.08963
4.05 K	0.1233
4.49 K	0.1714
4.99 K	0.2363
5.54 K	0.3302
6.14 K	0.4631
6.81 K	0.6487
7.56 K	0.9052
8.38 K	1.253
9.29 K	1.714
10.26 K	2.266
11.36 K	3.021
12.61 K	3.971
13.99 K	5.144
15.52 K	6.537
17.23 K	8.219
19.12 K	10.17
21.21 K	12.39
23.54 K	14.97
26.1 K	17.79
28.96 K	20.88
32.16 K	24.14
35.67 K	27.61
39.58 K	31.21
43.9 K	34.8
48.73 K	38.39
54.07 K	42.02
60 K	45.71
66.57 K	49.33
73.89 K	52.81
82 K	56.69
91.01 K	60.28
100.97 K	63.46
111.11 K	67.66
121.2 K	71.28
131.23 K	75.08
141.33 K	78.93
151.47 K	82.66
161.56 K	86.28
171.65 K	90.21
181.75 K	94.38
191.83 K	98.14
201.92 K	101.91
212.02 K	106.35
222.12 K	110.99
232.21 K	115.4
242.21 K	119.97
252.4 K	124.67
262.46 K	128.8
272.51 K	133.51
282.55 K	138.2
292.7 K	141.62
302.71 K	144.34

[Cu] [copper]
Settings	molar heat capacity at constant pressure [J/K/mol]
1.93 K	0.001713
2.15 K	0.002021
2.39 K	0.002319
2.65 K	0.002809
2.95 K	0.003326
3.28 K	0.003967
3.64 K	0.004911
4.04 K	0.005973
4.48 K	0.007493
4.97 K	0.009444
5.51 K	0.01204
6.11 K	0.01543
6.78 K	0.0199
7.52 K	0.02598
8.33 K	0.03421
9.24 K	0.04517
10.25 K	0.06013
11.34 K	0.08043
12.58 K	0.1091
13.96 K	0.149
15.48 K	0.2052
17.18 K	0.2844
19.06 K	0.3981
21.16 K	0.5588
23.49 K	0.7857
26.06 K	1.094
28.95 K	1.514
32.07 K	2.062
35.61 K	2.768
39.52 K	3.635
43.85 K	4.662
48.66 K	5.846
54.01 K	7.178
59.94 K	8.631
66.51 K	10.16
73.83 K	11.68
81.93 K	13.27
90.94 K	14.71
100.89 K	16.04
111.02 K	17.3
121.12 K	18.35
131.2 K	19.24
141.26 K	19.93
151.41 K	20.52
161.51 K	21.05
171.6 K	21.5
181.69 K	21.94
191.78 K	22.25
201.87 K	22.55
212 K	22.82
222.11 K	23.11
232.19 K	23.37
242.21 K	23.57
252.34 K	23.79
262.41 K	23.94
272.42 K	24.1
282.6 K	24.3
292.63 K	24.41
297.94 K	24.49
302.69 K	24.51
302.72 K	24.54
307.82 K	24.55
312.89 K	24.59
317.83 K	24.7
322.91 K	24.68
328.03 K	24.79
333.05 K	24.87
338.06 K	24.81
343.13 K	24.9
348.29 K	25.01
353.34 K	25.13
358.42 K	25.09
363.5 K	25.13
368.53 K	25.23
373.56 K	25.3
378.59 K	25.4
383.61 K	25.45
388.61 K	25.48
393.64 K	25.58
398.65 K	25.68

Reference: the NIST ThermoML archive (doi:10.1016/j.jct.2015.08.031)
